The test system of series [1] is axenic Leishmania donovani MHOM-ET-67/L82 amastigotes. As to the kind of experiment: In vitro antiprotozoal assay, axenic amastigotes. It is filed as cell-based.
Experimental: (§1) The testing of the inventive compounds against Leishmania donovani (strain MHOM/ET/67/L82) was performed in 96 well plates at concentrations in serial dilutions. Tests were done in triplicate.
Series [2] deals with intracellular Leishmania donovani MHOM-ET-67/L82 amastigotes. As to the kind of experiment: In vitro antiprotozoal assay, intracellular amastigotes. It is filed as cell-based.
Experimental: as §1
Series [3] is described as follows: Cytotoxicity assay (Alamar Blue) on L6-cells. It counts as cell-based, rat. Here is the method: Tests were done in triplicate.
The plates were incubated for additional 2 h.
(Alamar Blue is a resazurin reagent that responds to reducing activity.)

The mark [4] stands for this setting: axenic amastigotes, read-out: L.don.ax. IC50.
Where [5] appears, read: intracellular amastigotes, read-out: L.don.InMac IC50.
The mark [6] stands for this setting: rat myoblast L6 cells, read-out: Cytotox L6 IC50.

In general, IC50 refers to the concentration that gives 50% inhibition.

Like-named read-outs stand apart in the source and are kept apart here. Square brackets hold non-standard residues; d marks the D form. Peptide text beside a SMILES is read from it. * marks the point of attachment. NH((S)CH(Me)CH2NMe2) = C[C@@H](CN(C)C)N*; NH(1-CH2NMe2-cBu) = CN(C)CC1(N*)CCC1; Gly(octyl) = CCCCCCCC[C@H](N)C(=O)O; Oxazole4CO(2-Me) = Cc1nc(C(=O)*)co1; Benzoyl(4-F) = O=C(c1ccc(F)cc1)*; hCha = N[C@@H](CCC1CCCCC1)C(=O)O; Pyrrole2CO = O=C(c1ccc[nH]1)*; X6 = O=C(c1ccnc2cc(Cl)ccc12)*; X10 = O=C(c1ccc2cccnc2c1)*; X12 = CN(C)CC1(N*)CCCC1; Aib = CC(C)(N)C(=O)O; X11 = CN(CCN*)CC(F)F; Bz = O=C(c1ccccc1)*; βAla = NCCC(=O)O

On to `CCCCCCCC[C@H](NC(=O)[C@@H]1CCCN1C(=O)c1ccccc1)C(=O)N[C@@H](CC(C)C)C(=O)NC(C)(C)C(=O)N[C@@H](CC(C)C)C(=O)N[C@@H](CC(C)C)C(=O)NC(C)(C)C(=O)NC(C)(C)C(=O)NCCC(=O)N[C@@H](C)CN(C)C` [Compound 5649, (2S)-2-{[(2S)-1-benzoylpyrrolidin-2-yl]formamido}-N-[(1S)-1-[(1-{[(1S)-1-{[(1S)-1-{[1-({1-[(2-{[(2S)-1-(dimethylamino)propan-2-yl]carbamoyl}ethyl)carbamoyl]-1-methylethyl}carbamoyl)-1-methylethyl]carbamoyl}-3-methylbutyl]carbamoyl}-3-methylbutyl]carbamoyl}-1-methylethyl)carbamoyl]-3-methylbutyl]decanamide] (Bz-P[Gly(octyl)]L[Aib]LL[Aib][Aib][βAla]-{NH((S)CH(Me)CH2NMe2)}), for which the IC50 in series [1] (setting [4]) was determined as 3.5 nM; in series [2] (setting [5]), 27.2 nM. Further, the IC50 at 68 h in series [3] (setting [6]) is 274 nM.
With `CCCCCCCC[C@H](NC(=O)[C@@H]1CCCN1C(=O)c1ccnc2cc(Cl)ccc12)C(=O)N[C@@H](CC(C)C)C(=O)NC(C)(C)C(=O)N[C@@H](CC(C)C)C(=O)N[C@@H](CC(C)C)C(=O)NC(C)(C)C(=O)NC(C)(C)C(=O)NCCC(=O)N[C@@H](C)CN(C)C` [Compound 5768, (2S)-2-{[(2S)-1-(7-chloroquinoline-4-carbonyl)pyrrolidin-2-yl]formamido}-N-[(1S)-1-[(1-{[(1S)-1-{[(1S)-1-{[1-({1-[(2-{[(2S)-1-(dimethylamino)propan-2-yl]carbamoyl}ethyl)carbamoyl]-1-methylethyl}carbamoyl)-1-methylethyl]carbamoyl}-3-methylbutyl]carbamoyl}-3-methylbutyl]carbamoyl}-1-methylethyl)carbamoyl]-3-methylbutyl]decanamide] (X6-P[Gly(octyl)]L[Aib]LL[Aib][Aib][βAla]-{NH((S)CH(Me)CH2NMe2)}), the IC50 in series [1] (setting [4]) is 33.5 nM; in series [2] (setting [5]) it was 257 nM. Further, in series [3] (rat), the IC50 at 68 h amounted to 627 nM.
For `CCCCCCCC[C@H](NC(=O)[C@@H]1CCCN1C(=O)c1ccc2cccnc2c1)C(=O)N[C@@H](CC(C)C)C(=O)NC(C)(C)C(=O)N[C@@H](CC(C)C)C(=O)N[C@@H](CC(C)C)C(=O)NC(C)(C)C(=O)NC(C)(C)C(=O)NCCC(=O)N[C@@H](C)CN(C)C` [Compound 5938, (2S)-N-[(1S)-1-[(1-{[(1S)-1-{[(1S)-1-{[1-({1-[(2-{[(2S)-1-(dimethylamino)propan-2-yl]carbamoyl}ethyl)carbamoyl]-1-methylethyl}carbamoyl)-1-methylethyl]carbamoyl}-3-methylbutyl]carbamoyl}-3-methylbutyl]carbamoyl}-1-methylethyl)carbamoyl]-3-methylbutyl]-2-{[(2S)-1-(quinoline-7-carbonyl)pyrrolidin-2-yl]formamido}decanamide] (X10-P[Gly(octyl)]L[Aib]LL[Aib][Aib][βAla]-{NH((S)CH(Me)CH2NMe2)}), 13 nM corresponded to half-maximal inhibition in series [1] (IC50). Besides, in series [3] (setting [6]), the IC50 at 68 h was 714 nM.
Turning to `CCCCCCCC[C@H](NC(=O)[C@@H]1CCCN1C(=O)c1ccc[nH]1)C(=O)N[C@@H](CC(C)C)C(=O)NC(C)(C)C(=O)N[C@@H](CC(C)C)C(=O)N[C@@H](CC(C)C)C(=O)NC(C)(C)C(=O)NC(C)(C)C(=O)NCCC(=O)N[C@@H](C)CN(C)C` [Compound 5939, (2S)-N-[(1S)-1-[(1-{[(1S)-1-{[(1S)-1-{[1-({1-[(2-{[(2S)-1-(dimethylamino)propan-2-yl]carbamoyl}ethyl)carbamoyl]-1-methylethyl}carbamoyl)-1-methylethyl]carbamoyl}-3-methylbutyl]carbamoyl}-3-methylbutyl]carbamoyl}-1-methylethyl)carbamoyl]-3-methylbutyl]-2-{[(2S)-1-(1H-pyrrole-2-carbonyl)pyrrolidin-2-yl]formamido}decanamide] (Pyrrole2CO-P[Gly(octyl)]L[Aib]LL[Aib][Aib][βAla]-{NH((S)CH(Me)CH2NMe2)}), the IC50 in series [1] (setting [4]) turned out to be 8 nM. The molecule also had an IC50 at 68 h in series [3] (rat) of 611 nM.
The corresponding values for `CCCCCCCC[C@H](NC(=O)[C@@H]1CCCN1C(=O)c1coc(C)n1)C(=O)N[C@@H](CC(C)C)C(=O)NC(C)(C)C(=O)N[C@@H](CC(C)C)C(=O)N[C@@H](CC(C)C)C(=O)NC(C)(C)C(=O)NC(C)(C)C(=O)NCCC(=O)NC1(CN(C)C)CCC1` [Compound 6253, (2S)-N-[(1S)-1-[(1-{[(1S)-1-{[(1S)-1-({1-[(1-{[2-({1-[(dimethylamino)methyl]cyclobutyl}carbamoyl)ethyl]carbamoyl}-1-methylethyl)carbamoyl]-1-methylethyl}carbamoyl)-3-methylbutyl]carbamoyl}-3-methylbutyl]carbamoyl}-1-methylethyl)carbamoyl]-3-methylbutyl]-2-{[(2S)-1-(2-methyl-1,3-oxazole-4-carbonyl)pyrrolidin-2-yl]formamido}decanamide] ({Oxazole4CO(2-Me)}-P[Gly(octyl)]L[Aib]LL[Aib][Aib][βAla]-{NH(1-CH2NMe2-cBu)}) are 2.6 nM and 945 nM.
Take `CCCCCCCC[C@H](NC(=O)[C@@H]1CCCN1C(=O)c1coc(C)n1)C(=O)N[C@@H](CC(C)C)C(=O)NC(C)(C)C(=O)N[C@@H](CC(C)C)C(=O)N[C@@H](CC(C)C)C(=O)NC(C)(C)C(=O)NC(C)(C)C(=O)NCCC(=O)NC1(CN(C)C)CCCC1` [Compound 6254, (2S)-N-[(1S)-1-[(1-{[(1S)-1-{[(1S)-1-({1-[(1-{[2-({1-[(dimethylamino)methyl]cyclopentyl}carbamoyl)ethyl]carbamoyl}-1-methylethyl)carbamoyl]-1-methylethyl}carbamoyl)-3-methylbutyl]carbamoyl}-3-methylbutyl]carbamoyl}-1-methylethyl)carbamoyl]-3-methylbutyl]-2-{[(2S)-1-(2-methyl-1,3-oxazole-4-carbonyl)pyrrolidin-2-yl]formamido}decanamide] ({Oxazole4CO(2-Me)}-P[Gly(octyl)]L[Aib]LL[Aib][Aib][βAla]-X12): the half-inhibitory concentration (IC50) in series [1] (setting [4]) worked out at 2.5 nM. Half-maximal inhibition in series [3] (rat) (IC50 at 68 h) required 528 nM.
The corresponding values for `Cc1nc(C(=O)N2CCC[C@H]2C(=O)N[C@@H](Cc2ccccc2)C(=O)N[C@@H](CC(C)C)C(=O)NC(C)(C)C(=O)N[C@@H](CC(C)C)C(=O)N[C@@H](CC(C)C)C(=O)NC(C)(C)C(=O)NC(C)(C)C(=O)NCCC(=O)NC2(CN(C)C)CCC2)co1` [Compound 6328, (2S)-N-(1-{[(1S)-1-{[(1S)-1-({1-[(1-{[2-({1-[(dimethylamino)methyl]cyclobutyl}carbamoyl)ethyl]carbamoyl}-1-methylethyl)carbamoyl]-1-methylethyl}carbamoyl)-3-methylbutyl]carbamoyl}-3-methylbutyl]carbamoyl}-1-methylethyl)-4-methyl-2-[(2S)-2-{[(2S)-1-(2-methyl-1,3-oxazole-4-carbonyl)pyrrolidin-2-yl]formamido}-3-phenylpropanamido]pentanamide] (HELM PEPTIDE1{[Cc1nc(C(=O)[*:2])co1].P.F.L.[Aib].L.L.[Aib].[Aib].[bAla].[CN(C)CC1(N[*:1])CCC1]}$$$$V2.0) are 381 nM and 8720 nM.
On to `Cc1nc(C(=O)N2CCC[C@H]2C(=O)N[C@@H](CCC2CCCCC2)C(=O)N[C@@H](CC(C)C)C(=O)NC(C)(C)C(=O)N[C@@H](CC(C)C)C(=O)N[C@@H](CC(C)C)C(=O)NC(C)(C)C(=O)NC(C)(C)C(=O)NCCC(=O)NCCN(C)CC(F)F)co1` [Compound 6488, (2S)-2-[(2S)-4-cyclohexyl-2-{[(2S)-1-(2-methyl-1,3-oxazole-4-carbonyl)pyrrolidin-2-yl]formamido}butanamido]-N-(1-{[(1S)-1-{[(1S)-1-({1-[(1-{[2-({2-[(2,2-difluoroethyl)(methyl)amino]ethyl}carbamoyl)ethyl]carbamoyl}-1-methylethyl)carbamoyl]-1-methylethyl}carbamoyl)-3-methylbutyl]carbamoyl}-3-methylbutyl]carbamoyl}-1-methylethyl)-4-methylpentanamide] ({Oxazole4CO(2-Me)}-P[hCha]L[Aib]LL[Aib][Aib][βAla]-X11), for which the IC50 in series [1] (setting [4]) was determined as 429 nM. The IC50 at 68 h in series [3] (setting [6]) was 7180 nM.
As for `CC(C)C[C@H](NC(=O)[C@H](CCC1CCCCC1)NC(=O)[C@@H]1CCCN1C(=O)c1ccc(F)cc1)C(=O)NC(C)(C)C(=O)N[C@@H](CC(C)C)C(=O)N[C@@H](CC(C)C)C(=O)NC(C)(C)C(=O)NC(C)(C)C(=O)NCCC(=O)NCCN(C)CC(F)F` [Compound 8342, (2S)-2-[(2S)-4-cyclohexyl-2-{[(2S)-1-(4-fluorobenzoyl)pyrrolidin-2-yl]formamido}butanamido]-N-(1-{[(1S)-1-{[(1S)-1-({1-[(1-{[2-({2-[(2,2-difluoroethyl)(methyl)amino]ethyl}carbamoyl)ethyl]carbamoyl}-1-methylethyl)carbamoyl]-1-methylethyl}carbamoyl)-3-methylbutyl]carbamoyl}-3-methylbutyl]carbamoyl}-1-methylethyl)-4-methylpentanamide] ({Benzoyl(4-F)}-P[hCha]L[Aib]LL[Aib][Aib][βAla]-X11), the IC50 at 68 h in series [3] (setting [6]) amounted to 6790 nM.
As for `CCCCCCCCCCCCCCCCOP(=O)([O-])OCC[N+](C)(C)C` [Miltefosine, reference compound], the half-inhibitory concentration (IC50) in series [1] (Leishmania donovani, reference compound, L.don.ax., read-out: IC50 Concurrent) was 162 nM; in series [2] (Leishmania donovani, reference compound, L.don.InMac, read-out: IC50 Concurrent), 162 nM.

The values are drawn from patent US20240174714A1, “TREATMENT OF SKIN DISORDERS” (priority 2021, published 2024).
